In PubChem BioAssay (NCI):
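Interpolation was linear, between the two tested concentrations surrounding the appropriate level; five concentrations were tested over 48 hours in 96-well plates. The concentration for full growth arrest is given as TGI.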

Assays:
Assay in all cases: inhibition of tumour cell growth, NCI panel, 48 h
786-0 renal = tested on: 786-0 renal
A498 renal = tested on: A498 renal
A549 NSCLC = tested on: A549 NSCLC
ACHN renal = tested on: ACHN renal
CAKI-1 renal = tested on: CAKI-1 renal
CCRF-CEM leukemia = tested on: CCRF-CEM leukemia
COLO 205 colon = tested on: COLO 205 colon
DU-145 prostate = tested on: DU-145 prostate
EKVX NSCLC = tested on: EKVX NSCLC
HCC-2998 colon = tested on: HCC-2998 colon
HCT-116 colon = tested on: HCT-116 colon
HCT-15 colon = tested on: HCT-15 colon
HL-60(TB) leukemia = tested on: HL-60(TB) leukemia
HOP-62 NSCLC = tested on: HOP-62 NSCLC
HS 578T breast = tested on: HS 578T breast
HT29 colon = tested on: HT29 colon
K-562 leukemia = tested on: K-562 leukemia
KM12 colon = tested on: KM12 colon
LOX IMVI melanoma = tested on: LOX IMVI melanoma
M14 melanoma = tested on: M14 melanoma
MALME-3M melanoma = tested on: MALME-3M melanoma
MCF7 breast = tested on: MCF7 breast
MDA-MB-231 breast = tested on: MDA-MB-231 breast
MDA-MB-435 = tested on: MDA-MB-435
MDA-N = tested on: MDA-N
MOLT-4 leukemia = tested on: MOLT-4 leukemia
NCI-H226 lung = tested on: NCI-H226 lung
NCI-H23 lung = tested on: NCI-H23 lung
NCI-H460 lung = tested on: NCI-H460 lung
NCI/ADR-RES ovarian = tested on: NCI/ADR-RES ovarian
OVCAR-3 ovarian = tested on: OVCAR-3 ovarian
OVCAR-4 ovarian = tested on: OVCAR-4 ovarian
OVCAR-5 ovarian = tested on: OVCAR-5 ovarian
OVCAR-8 ovarian = tested on: OVCAR-8 ovarian
PC-3 prostate = tested on: PC-3 prostate
RPMI-8226 leukemia = tested on: RPMI-8226 leukemia
SF-268 CNS = tested on: SF-268 CNS
SF-295 CNS = tested on: SF-295 CNS
SF-539 CNS = tested on: SF-539 CNS
SK-MEL-2 melanoma = tested on: SK-MEL-2 melanoma
SK-MEL-28 melanoma = tested on: SK-MEL-28 melanoma
SK-MEL-5 melanoma = tested on: SK-MEL-5 melanoma
SK-OV-3 ovarian = tested on: SK-OV-3 ovarian
SN12C renal = tested on: SN12C renal
SNB-19 CNS = tested on: SNB-19 CNS
SNB-75 CNS = tested on: SNB-75 CNS
SR leukemia = tested on: SR leukemia
SW-620 colon = tested on: SW-620 colon
T-47D breast = tested on: T-47D breast
TK-10 renal = tested on: TK-10 renal
U251 CNS = tested on: U251 CNS
UACC-257 melanoma = tested on: UACC-257 melanoma
UACC-62 melanoma = tested on: UACC-62 melanoma
UO-31 renal = tested on: UO-31 renal
BT-549 breast = tested on: BT-549 breast
HOP-92 NSCLC = tested on: HOP-92 NSCLC
NCI-H522 lung = tested on: NCI-H522 lung

COc1cc(Cn2c3c(c4c(CN(C)C)c(O)ccc42)C(=O)c2ccccc2C3=O)cc(OC)c1
TGI (786-0 renal): 27.6 µM | TGI (A498 renal): 22.4 µM | TGI (A549 NSCLC): 35.1 µM | TGI (ACHN renal): 29.6 µM | TGI (CAKI-1 renal): 30.4 µM | TGI (CCRF-CEM leukemia): 52.4 µM | TGI (COLO 205 colon): 85.3 µM | TGI (DU-145 prostate): > 100 µM | TGI (EKVX NSCLC): 40.4 µM | TGI (HCC-2998 colon): 34.5 µM | TGI (HCT-116 colon): 31.1 µM | TGI (HCT-15 colon): 28.2 µM | TGI (HL-60(TB) leukemia): > 100 µM | TGI (HOP-62 NSCLC): 30.9 µM | TGI (HS 578T breast): 43.9 µM | TGI (HT29 colon): > 100 µM | TGI (K-562 leukemia): 36.8 µM | TGI (KM12 colon): > 100 µM | TGI (LOX IMVI melanoma): 40.6 µM | TGI (M14 melanoma): 32.6 µM | TGI (MALME-3M melanoma): 76.2 µM | TGI (MCF7 breast): 29.4 µM | TGI (MDA-MB-231 breast): 40.7 µM | TGI (MDA-MB-435): 37 µM | TGI (MDA-N): 31.6 µM | TGI (MOLT-4 leukemia): 88.9 µM | TGI (NCI-H226 lung): > 100 µM | TGI (NCI-H23 lung): 29.1 µM | TGI (NCI-H460 lung): 32.3 µM | TGI (NCI/ADR-RES ovarian): 34.8 µM | TGI (OVCAR-3 ovarian): 90.5 µM | TGI (OVCAR-4 ovarian): 26.9 µM | TGI (OVCAR-5 ovarian): 42.5 µM | TGI (OVCAR-8 ovarian): 28.3 µM | TGI (PC-3 prostate): 35.4 µM | TGI (RPMI-8226 leukemia): 41.5 µM | TGI (SF-268 CNS): 27.9 µM | TGI (SF-295 CNS): 44 µM | TGI (SF-539 CNS): 29.8 µM | TGI (SK-MEL-2 melanoma): 29.8 µM | TGI (SK-MEL-28 melanoma): 29.2 µM | TGI (SK-MEL-5 melanoma): 26 µM | TGI (SK-OV-3 ovarian): 48.3 µM | TGI (SN12C renal): 55.1 µM | TGI (SNB-19 CNS): 36.9 µM | TGI (SNB-75 CNS): 8.07 µM | TGI (SR leukemia): 36.5 µM | TGI (SW-620 colon): 38.5 µM | TGI (T-47D breast): > 100 µM | TGI (TK-10 renal): 74.2 µM | TGI (U251 CNS): 36.8 µM | TGI (UACC-257 melanoma): 55.7 µM | TGI (UACC-62 melanoma): 51.9 µM | TGI (UO-31 renal): 27.7 µM

Cc1cccc2c1Oc1cc(Cl)ccc1C2NC(=O)CCN1CCCCC1 (stereo unspecified)
TGI (786-0 renal): 28 µM | TGI (A549 NSCLC): 37.5 µM | TGI (BT-549 breast): 33.4 µM | TGI (CCRF-CEM leukemia): 32.4 µM | TGI (COLO 205 colon): 34.6 µM | TGI (EKVX NSCLC): 55.5 µM | TGI (HCC-2998 colon): 28.3 µM | TGI (HCT-116 colon): 32.1 µM | TGI (HCT-15 colon): 32.7 µM | TGI (HL-60(TB) leukemia): 38.3 µM | TGI (HOP-62 NSCLC): 28.3 µM | TGI (HOP-92 NSCLC): 10.1 µM | TGI (HT29 colon): 27.1 µM | TGI (K-562 leukemia): 32 µM | TGI (KM12 colon): 30.8 µM | TGI (LOX IMVI melanoma): 30.2 µM | TGI (M14 melanoma): 34 µM | TGI (MCF7 breast): 33.6 µM | TGI (MDA-MB-231 breast): 39 µM | TGI (MDA-MB-435): 30.7 µM | TGI (MDA-N): 33.1 µM | TGI (MOLT-4 leukemia): 34.3 µM | TGI (NCI-H23 lung): 37.5 µM | TGI (NCI-H460 lung): 31.6 µM | TGI (NCI-H522 lung): 31.3 µM | TGI (NCI/ADR-RES ovarian): 32 µM | TGI (OVCAR-4 ovarian): 30.9 µM | TGI (OVCAR-5 ovarian): 31.9 µM | TGI (OVCAR-8 ovarian): 30.2 µM | TGI (PC-3 prostate): 30.5 µM | TGI (RPMI-8226 leukemia): 63 µM | TGI (SF-268 CNS): 83.2 µM | TGI (SF-295 CNS): 33.1 µM | TGI (SF-539 CNS): 31.9 µM | TGI (SK-MEL-28 melanoma): 29.2 µM | TGI (SK-MEL-5 melanoma): 30 µM | TGI (SN12C renal): 33 µM | TGI (SNB-19 CNS): 33 µM | TGI (SNB-75 CNS): 28.1 µM | TGI (SR leukemia): 35 µM | TGI (SW-620 colon): 34.9 µM | TGI (T-47D breast): 29.8 µM | TGI (TK-10 renal): 30 µM | TGI (U251 CNS): 29.5 µM | TGI (UACC-257 melanoma): 30.5 µM | TGI (UACC-62 melanoma): 30 µM | TGI (UO-31 renal): 29.2 µM
